Legend:
[1] = test system: MODE-K cells; assay: MODE-K cell presentation of α-galcer to DN32 cells (IL-2 ELISA); type: cell-based, mouse; details: MODE-K cells incubated with inhibitor (10 uM)
Description: FIG. 17A is a bar chart showing IL-2 production of MODE-K cells cultured in the presence of BMS212122 (MTPi) or vehicle were incubated with α-galcer for 3 hours, washed, and co cultured with DN32 cells. IL-2 concentrations were measured by ELISA of 24 hour culture supernatants.
APCs were incubated with 100 ng/mL α-galcer (kindly provided by Dr. H. Ploegh) for 3 hours, washed three times in PBS and aliquoted into a 96 well plate at 10^6 cells/mL. DN32 cells were added at 1:1 E:T ratio unless otherwise indicated. CD4^+ cells were isolated from spleens of OT-II transgenic mice using positive selection on CD4 magnetic beads (Miltenyi Biotec) and incubated with APCs and 100 μg/mL ovalbumin. The 24.8 NKT cell line was incubated with APCs in the absence of added antigen at E:T=2:1 unless otherwise indicated. Mouse IL-2 production was assessed by ELISA (OptEIA, BD PharMingen) of 24 or 40 hour culture supernatants. APCs were treated with BMS212122 (10 uM dissolved in DMSO; kindly provided by Bristol Myers Squibb, New Jersey) as indicated and washed prior to addition of T or NKT cells. […]
The relationship between MTP and CD1d in large intestinal epithelial cells (IECs) was determined. […]

[2] = test system: BMDCs; assay: Flow cytometry of surface markers on BMDCs; type: cell-based, mouse
Description: FIG. 17E is a flow cytometric analysis showing BMDCs cultured for 4 days with BMS212122 were stained with FITC-conjugated mAb 1B1. Dashed line represents the isotype control.
FIG. 18 is flow cytometric analysis of in vitro differentiated bone marrow cells from wild type mice incubated with BMS212122 (MTPi) or vehicle Surface staining was performed using antibodies to MHC II (FITC-conjugated) and CD11c (PE-conjugated).
Bone marrow was extracted from the femurs of C57BL6 or MTPmx1cre mice, washed once in PBS and resuspended in R10 supplemented with culture supernatant from murine GM-CSF transfected cells for a final concentration of 200 U/mL GM-CSF. BMDCs were then cultured in bacteriological plates for 12-14 days as described. Differentiated cells were harvested by gentle pipetting, washed in PBS, and analyzed by flow cytometry for surface expression of CD11c and I-A^b. Human monocytes were harvested from the peripheral blood of healthy volunteers by positive selection on CD14 magnetic beads (Miltenyi Biotec) and cultured in R10 medium at 10^6 cells per mL supplemented with 200 U/mL recombinant hIL-4 and 300 U/mL recombinant hGM-CSF (PeproTech, Rocky Hill, N.J.). After 5 days cells were dislodged by gentle pipetting, analyzed by flow cytometry and assayed for antigen presentation.
Mouse cells were stained using the following antibodies: FITC-conjugated α-CD1d (1B1, PharMingen); PE-conjugated α-CD11c (HL3, PharMingen); FITC-conjugated α-1-A^d (AMS-32.1, PharMingen); PE-conjugated α-CD69 (H1.2F3, PharMingen); PE-conjugated α-B220 (RA3-6B2, PharMingen). Human cells were stained using: PE-conjugated α-CD83 (550634, PharMingen); FITC-conjugated α-HLA-A,B,C (557348, PharMingen); α-HLA DR,DP,DQ (32381A, PharMingen); α-CD1d (42.1 or 51.1.3); α-mouse IgG+IgM (AMI1708, Biosource, Camarillo, Calif.). Staining was performed in the presence of Via-Probe (PharMingen) and analyzed with a FACSort flow cytometer (Becton Dickinson).
The role of MTP in CD1d presentation by primary mouse APCs was examined. Splenocytes were isolated from wild type mice and assayed for their ability to present an exogenous antigen, α-galcer, to DN32 NKT cells and their ability to stimulate the autoreactive NKT cell line 24.8. When splenocytes were incubated with BMS212122 for 24 hours prior to addition of NKT cells, their ability to present exogenous and endogenous CD1d-restricted antigens was reduced (FIG. 17B). […] Dendritic cells were then isolated from wild type splenocytes by positive selection on CD11c magnetic beads. […] Dendritic cells from mouse bone marrow (BMDC) were cultured with BMS212122 or vehicle control after 6 days of differentiation in the presence of GM-CSF. On day 10, BMDCs were collected and cocultured with NKT cells. […]

[3] = target: MTP (Homo sapiens, UniProt P55157); details: cited from earlier work
MTP, sequence (P55157 19-894, species assumed): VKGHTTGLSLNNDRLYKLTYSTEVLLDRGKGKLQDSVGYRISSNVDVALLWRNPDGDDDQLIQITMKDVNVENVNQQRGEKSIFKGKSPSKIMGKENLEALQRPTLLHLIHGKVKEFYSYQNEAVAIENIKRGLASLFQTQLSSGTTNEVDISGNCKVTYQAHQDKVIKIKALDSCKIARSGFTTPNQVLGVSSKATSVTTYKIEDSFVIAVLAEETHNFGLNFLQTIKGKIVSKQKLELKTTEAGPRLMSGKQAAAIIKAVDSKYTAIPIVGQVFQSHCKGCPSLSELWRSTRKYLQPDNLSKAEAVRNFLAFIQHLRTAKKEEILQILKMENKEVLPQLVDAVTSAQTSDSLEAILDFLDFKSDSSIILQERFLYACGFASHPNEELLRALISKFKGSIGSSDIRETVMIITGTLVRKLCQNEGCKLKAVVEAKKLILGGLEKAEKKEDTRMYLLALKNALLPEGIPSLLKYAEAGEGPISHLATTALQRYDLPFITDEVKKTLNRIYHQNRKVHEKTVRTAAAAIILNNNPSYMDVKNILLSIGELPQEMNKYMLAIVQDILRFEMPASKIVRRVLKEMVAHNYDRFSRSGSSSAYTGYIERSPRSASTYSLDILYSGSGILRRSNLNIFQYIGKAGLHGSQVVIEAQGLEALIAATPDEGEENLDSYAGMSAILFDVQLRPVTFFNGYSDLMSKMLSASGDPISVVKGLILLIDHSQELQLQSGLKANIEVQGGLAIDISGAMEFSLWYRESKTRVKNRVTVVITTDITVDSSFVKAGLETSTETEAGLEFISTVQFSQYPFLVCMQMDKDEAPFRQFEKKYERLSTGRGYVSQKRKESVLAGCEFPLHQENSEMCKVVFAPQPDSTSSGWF
MTP, sequence (P07237 18-508 partner, species assumed): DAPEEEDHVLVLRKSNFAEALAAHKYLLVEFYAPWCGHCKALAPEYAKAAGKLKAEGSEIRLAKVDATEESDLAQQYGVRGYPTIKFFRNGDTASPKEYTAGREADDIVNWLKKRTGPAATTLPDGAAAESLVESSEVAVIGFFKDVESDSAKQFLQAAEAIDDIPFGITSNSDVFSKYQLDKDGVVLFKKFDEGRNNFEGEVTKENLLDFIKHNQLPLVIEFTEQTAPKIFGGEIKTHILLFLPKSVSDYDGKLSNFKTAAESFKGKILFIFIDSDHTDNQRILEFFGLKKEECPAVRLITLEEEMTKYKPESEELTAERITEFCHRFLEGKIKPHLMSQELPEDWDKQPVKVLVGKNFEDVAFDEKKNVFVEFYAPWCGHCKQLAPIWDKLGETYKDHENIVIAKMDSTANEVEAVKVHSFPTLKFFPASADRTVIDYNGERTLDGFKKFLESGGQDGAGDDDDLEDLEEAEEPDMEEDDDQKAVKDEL

In the case of `Cc1ccc2c(nc(C)n2CCCCC2(C(=O)NCC(F)(F)F)c3ccccc3-c3ccccc32)c1NC(=O)c1ccccc1-c1ccc(C(F)(F)F)cc1` [BMS212122, 9-[4-[2,5-Dimethyl-4-[[[4′-(trifluoromethyl)[1,1′-biphenyl]-2-yl]carbonyl]amino]-1H-benzimidazol-1-yl]butyl]-N-(2,2,2-trifluoroethyl)-9H-fluorene-9-carboxamide], the “presentation of α-galcer to DN32 cells” value [1] was “decreased”, the CD11c surface staining ([2]; BMDCs) was “unaffected” and the “MHC class II surface staining” value ([2]; BMDCs) was “unaffected”. For the same compound, the “CD1d expression on BMDCs, % of vehicle controls” value ([2]; after 4 days of treatment) was 66%, the “CD1d expression on BMDCs, % of level in vehicle treated controls” value ([2]; one day after addition) was 86% and the “transfer of triglycerides, phospholipids, and cholesterol esters in vitro” value [3] was “blocks transfer”.

— patent publication US20050234073A1, “Methods of inhibiting inflammation” (priority 2003, published 2005)
